{"source": "ChEMBL document CHEMBL4359849", "about": "“Bioisosteric ferrocenyl aminoquinoline-benzimidazole hybrids: Antimicrobial evaluation and mechanistic insights” (Eur J Med Chem, 2019)", "key": {"CHO": {"test_system": "CHO", "test": "Cytotoxicity against CHO cells measured after 48 hrs by MTT assay", "assay_type": "cell-based", "details": "Cricetulus griseus"}, "Plasmodium falciparum [1]": {"test_system": "Plasmodium falciparum", "test": "Antiplasmodial activity against chloroquine-sensitive asexual blood stage of Plasmodium falciparum NF54 by LDH assay", "assay_type": "functional, organism-based"}, "Plasmodium falciparum [2]": {"test_system": "Plasmodium falciparum", "test": "Antiplasmodial activity against chloroquine-resistant asexual blood stage of Plasmodium falciparum K1 by LDH assay", "assay_type": "functional, organism-based"}, "[3]": {"test": "Resistance index, ratio of IC50 for chloroquine-resistant asexual blood stage of Plasmodium falciparum K1 to IC50 for chloroquine-sensitive asexual blood stage of Plasmodium falciparum NF54", "assay_type": "functional"}, "[4]": {"test": "Selectivity index, ratio of IC50 for CHO cells to IC50 for chloroquine-sensitive asexual blood stage of Plasmodium falciparum NF54", "assay_type": "toxicity", "details": "hamster, read-out: Ratio IC50"}, "[5]": {"test": "Selectivity index, ratio of IC50 for CHO cells to IC50 for chloroquine-resistant asexual blood stage of Plasmodium falciparum K1", "assay_type": "toxicity", "details": "hamster, read-out: Ratio IC50"}, "[6]": {"test_system": "Mycobacterium tuberculosis", "test": "Antimycobacterial activity against Mycobacterium tuberculosis H37Rv after 14 days in presence of middlebrook 7H9/ADC medium by broth microdilution method", "assay_type": "functional", "details": "336 h"}, "[7]": {"test_system": "Mycobacterium tuberculosis", "test": "Antimycobacterial activity against Mycobacterium tuberculosis H37Rv after 14 days in presence of middlebrook 7H9/CAS medium by broth microdilution method", "assay_type": "functional", "details": "336 h"}, "[8]": {"test_system": "Mycobacterium tuberculosis", "test": "Antimycobacterial activity against Mycobacterium tuberculosis H37Rv after 7 days in presence of middlebrook 7H9/ADC medium by microplate alamar blue assay", "assay_type": "functional", "details": "168 h"}, "[9]": {"test_system": "Mycobacterium tuberculosis", "test": "Antimycobacterial activity against Mycobacterium tuberculosis H37Rv after 7 days in presence of middlebrook 7H9/CAS medium by microplate alamar blue assay", "assay_type": "functional", "details": "168 h"}, "Hemozoin [10]": {"test_system": "Hemozoin", "test": "Inhibition of beta-hematin formation assessed as reduction in hemozoin formation incubated for 16 hrs by NP40 detergent-mediated assay"}, "Hemozoin [11]": {"test_system": "Hemozoin", "test": "Potency index, ratio of chloroquine IC50 to compound IC50 for inhibition of beta-hematin assessed as hemozoin formation"}, "Plasmodium berghei [12]": {"test_system": "Plasmodium berghei", "test": "Antimalarial activity against GFP-transfected Plasmodium berghei ANKA infected mouse assessed as reduction in parasitemia at 50 mg/kg, po consecutively at 4, 24, 48 and 72 hrs post infection by flow cytometry relative to control", "assay_type": "functional"}, "Plasmodium berghei [13]": {"test_system": "Plasmodium berghei", "test": "Antimalarial activity against GFP-transfected Plasmodium berghei ANKA infected in mouse assessed as mean survival days at 50 mg/kg, po administered consecutively at 4, 24, 48 and 72 hrs post infection", "assay_type": "functional"}}, "data": [{"smiles": "N#Cc1ccc2c(c1)nc(-c1ccccc1)n2CCCNc1ccnc2cc(Cl)ccc12", "values": [{"measurement": "IC50", "setting": "CHO", "result": 38.9, "unit": "µM"}, {"measurement": "IC50", "setting": "Plasmodium falciparum [1]", "result": 975, "unit": "nM"}, {"measurement": "IC50", "setting": "Plasmodium falciparum [2]", "result": 179, "unit": "nM"}, {"measurement": "Ratio IC50", "setting": "[3]", "result": 0.183}, {"measurement": "selectivity ratio", "setting": "[4]", "result": 39.9}, {"measurement": "selectivity ratio", "setting": "[5]", "result": 217}, {"measurement": "MIC90", "setting": "[6]", "result": "> 125", "unit": "µM"}, {"measurement": "MIC90", "setting": "[7]", "result": 62.5, "unit": "µM"}, {"measurement": "MIC90", "setting": "[8]", "result": "> 62.5", "unit": "µM"}, {"measurement": "MIC90", "setting": "[9]", "result": "> 125", "unit": "µM"}]}, {"smiles": "CC[C@H]1CN2CCc3cc(OC)c(OC)cc3[C@@H]2C[C@@H]1C[C@H]1NCCc2cc(OC)c(OC)cc21", "note": "[EMETINE]", "values": [{"measurement": "IC50", "setting": "CHO", "result": 0.0162, "unit": "µM"}]}, {"smiles": "C[C@H]1[C@H](OC(=O)CCC(=O)O)O[C@@H]2O[C@@]3(C)CC[C@H]4[C@H](C)CC[C@@H]1[C@@]24OO3", "note": "[ARTESUNATE]", "values": [{"measurement": "IC50", "setting": "Plasmodium falciparum [1]", "result": 9.8, "unit": "nM"}]}, {"smiles": "Cc1ccc2c(c1)nc(-c1ccccc1)n2CCCNc1ccnc2cc(Cl)ccc12", "values": [{"measurement": "IC50", "setting": "CHO", "result": "> 50", "unit": "µM"}, {"measurement": "IC50", "setting": "Plasmodium falciparum [1]", "result": 784, "unit": "nM"}, {"measurement": "IC50", "setting": "Plasmodium falciparum [2]", "result": 457, "unit": "nM"}, {"measurement": "Ratio IC50", "setting": "[3]", "result": 0.583}, {"measurement": "MIC90", "setting": "[6]", "result": 125, "unit": "µM"}, {"measurement": "MIC90", "setting": "[7]", "result": 31.2, "unit": "µM"}, {"measurement": "MIC90", "setting": "[8]", "result": "> 62.5", "unit": "µM"}, {"measurement": "MIC90", "setting": "[9]", "result": 32.7, "unit": "µM"}]}, {"smiles": "CO[C@H]1/C=C/O[C@@]2(C)Oc3c(C)c(O)c4c(O)c(c(/C=N/N5CCN(C)CC5)c(O)c4c3C2=O)NC(=O)/C(C)=C\\C=C\\[C@H](C)[C@H](O)[C@@H](C)[C@@H](O)[C@@H](C)[C@H](OC(C)=O)[C@@H]1C", "note": "[RIFAMPIN]", "values": [{"measurement": "MIC90", "setting": "[6]", "result": 0.018, "unit": "µM"}, {"measurement": "MIC90", "setting": "[7]", "result": 0.018, "unit": "µM"}, {"measurement": "MIC90", "setting": "[8]", "result": 0.0156, "unit": "µM"}, {"measurement": "MIC90", "setting": "[9]", "result": 0.0217, "unit": "µM"}]}, {"smiles": "Clc1ccc2c(NCCCn3c(-c4ccccc4)nc4ccccc43)ccnc2c1", "values": [{"measurement": "IC50", "setting": "CHO", "result": 42, "unit": "µM"}, {"measurement": "IC50", "setting": "Plasmodium falciparum [1]", "result": 5550, "unit": "nM"}, {"measurement": "IC50", "setting": "Plasmodium falciparum [2]", "result": 201, "unit": "nM"}, {"measurement": "Ratio IC50", "setting": "[3]", "result": 0.0362}, {"measurement": "selectivity ratio", "setting": "[4]", "result": 7.57}, {"measurement": "selectivity ratio", "setting": "[5]", "result": 209}, {"measurement": "MIC90", "setting": "[6]", "result": 125, "unit": "µM"}, {"measurement": "MIC90", "setting": "[7]", "result": 62.5, "unit": "µM"}, {"measurement": "MIC90", "setting": "[8]", "result": 38.8, "unit": "µM"}, {"measurement": "MIC90", "setting": "[9]", "result": 50.6, "unit": "µM"}]}, {"smiles": "CCN(CC)CCCC(C)Nc1ccnc2cc(Cl)ccc12", "note": "(centres undefined) [CHLOROQUINE]", "values": [{"measurement": "IC50", "setting": "Hemozoin [10]", "result": 74, "unit": "µM"}]}, {"smiles": "CS(=O)(=O)c1ccc2c(c1)nc(-c1ccccc1)n2CCCNc1ccnc2cc(Cl)ccc12", "values": [{"measurement": "IC50", "setting": "CHO", "result": 40.9, "unit": "µM"}, {"measurement": "IC50", "setting": "Plasmodium falciparum [1]", "result": 559, "unit": "nM"}, {"measurement": "IC50", "setting": "Plasmodium falciparum [2]", "result": 1830, "unit": "nM"}, {"measurement": "Ratio IC50", "setting": "[3]", "result": 3.28}, {"measurement": "selectivity ratio", "setting": "[4]", "result": 73.2}, {"measurement": "selectivity ratio", "setting": "[5]", "result": 22.4}, {"measurement": "MIC90", "setting": "[6]", "result": "> 125", "unit": "µM"}, {"measurement": "MIC90", "setting": "[7]", "result": 125, "unit": "µM"}, {"measurement": "MIC90", "setting": "[8]", "result": "> 62.5", "unit": "µM"}, {"measurement": "MIC90", "setting": "[9]", "result": "> 125", "unit": "µM"}]}, {"smiles": "FC(F)(F)c1ccc2c(c1)nc(-c1ccccc1)n2CCCNc1ccnc2cc(Cl)ccc12", "values": [{"measurement": "IC50", "setting": "CHO", "result": 16.2, "unit": "µM"}, {"measurement": "IC50", "setting": "Plasmodium falciparum [1]", "result": 431, "unit": "nM"}, {"measurement": "IC50", "setting": "Plasmodium falciparum [2]", "result": 151, "unit": "nM"}, {"measurement": "Ratio IC50", "setting": "[3]", "result": 0.35}, {"measurement": "selectivity ratio", "setting": "[4]", "result": 37.5}, {"measurement": "selectivity ratio", "setting": "[5]", "result": 107}, {"measurement": "IC50", "setting": "Hemozoin [10]", "result": 16, "unit": "µM"}, {"measurement": "Ratio IC50", "setting": "Hemozoin [11]", "result": 4}, {"measurement": "inhibition in vivo at 50 mg/kg", "setting": "Plasmodium berghei [12]", "result": 58, "unit": "%"}, {"measurement": "MSD", "setting": "Plasmodium berghei [13]", "result": 7, "unit": "days"}, {"measurement": "MIC90", "setting": "[6]", "result": 62.5, "unit": "µM"}, {"measurement": "MIC90", "setting": "[7]", "result": 15.6, "unit": "µM"}, {"measurement": "MIC90", "setting": "[8]", "result": 89.1, "unit": "µM"}, {"measurement": "MIC90", "setting": "[9]", "result": 15.8, "unit": "µM"}]}]}
